Paper PMC7450057, “Enhancing intracellular accumulation and target engagement of PROTACs with reversible covalent chemistry” (Nature Communications, 2020)
pIC50: −log10 of the molar value. Several values for one entry are separate records, joined by “and”; a condition that tells them apart may be missing. Equal values may be shown once.

Legend:
NanoLuc-CRBN fusion = biological target: T1, NanoLuc-CRBN fusion (Homo sapiens, UniProt Q96SW2); experiment: NanoBRET CRBN in-cell target engagement assay; format: cell-based; settings: for NanoBRET(%): Figure 3h, replicates; for pIC50: HEK-293 cells, CRBN tracer 0.5 µM, triplicates, read-out: CRBN target engagement IC50,TE
T1 construct: host or cells: HEK 293T/17
Procedure: The target engagement assay for BTK or CRBN was from Promega (BTK kit, Cat. No. N2500; CRBN kit, Cat. No. CS1810C136) and was performed according to the manufacture’s instruction with some modifications. […] After 2 h incubation, the 3X Nano-Glo® Substrate with NanoLuc® extracellular inhibitor were added to cells and developed for 3 min at room temperature. BRET signals were collected using a BioTek SYNERGY H1 microplate reader equipped with a 450/80-nm BP filter for donor emission and a 610-nm LP filter for acceptor emission. BRET Ratio was calculated with the equation: [(Acceptor sample/Donor sample)–(Acceptor no tracer control/Donor no tracer control)] × 1000. The IC50 of the compound against its BTK or CRBN tracer was calculated using GraphPad Prism software.

MOLM-14 cells = experiment: AlamarBlue cell viability assay, MOLM-14; settings: for Cell viability, MOML-14: Supplementary Figure 7, replicates
Procedure: The IC50 was calculated using GraphPad Prism software with a four-parameter dose-response curve fit.

BTK [1] = biological target: T2, BTK (Homo sapiens, UniProt Q06187); experiment: BTK degradation in MOLM-14 cells (western blot); format: cell-based; set-up: endogenous in cells; host or cells: MOLM-14; settings: MOLM-14 cells, 200 nM, 24 h incubation
BTK [2] = biological target: T2, BTK; experiment: In vitro BTK kinase assay (PhosphoSens); format: biochemical; set-up: purchased SignalChem B10-10H-10
Procedure: BTK kinase activity inhibition IC50 was measured by PhosphoSens® Kinase Assay Kit (Assay Quant Technologies Inc., Cat.# CSKS-AQT0101K). […] Active recombinant BTK was purchased from SignalChem (Cat.# B10-10H-10). All the drugs (3 warhead control and 4 PROTACs) were dissolved in DMSO (10 mM). […] To calculate the IC50, subtract the background fluorescence determined with the “no kinase” control for each time point from the total signal to obtain corrected Relative Fluorescence Units (RFU) values. Plot the corrected RFU vs. Time for each inhibitor concentration and determine the initial reaction rates (slope of the linear portion) for each progress curve for each inhibitor concentration. Then plot velocity (RFU corrected/minute) vs [inhibitor] and determine the IC50 using a 4-parameter logistic fit.

T1 sequence (Q96SW2 whole entry, the tested form may be a part): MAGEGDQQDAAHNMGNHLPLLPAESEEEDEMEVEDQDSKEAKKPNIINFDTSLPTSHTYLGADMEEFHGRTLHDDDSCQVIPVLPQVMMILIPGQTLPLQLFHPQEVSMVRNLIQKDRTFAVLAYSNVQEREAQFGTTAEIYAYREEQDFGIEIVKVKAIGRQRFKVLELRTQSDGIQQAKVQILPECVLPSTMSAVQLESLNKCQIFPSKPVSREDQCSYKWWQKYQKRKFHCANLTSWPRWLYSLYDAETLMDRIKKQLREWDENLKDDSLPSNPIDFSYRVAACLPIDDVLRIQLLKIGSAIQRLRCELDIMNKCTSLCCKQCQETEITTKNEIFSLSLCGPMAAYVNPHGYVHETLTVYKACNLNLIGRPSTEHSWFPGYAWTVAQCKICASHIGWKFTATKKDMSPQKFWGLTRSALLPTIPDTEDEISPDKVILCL
T1 sequence (Q16531 whole entry partner, the tested form may be a part): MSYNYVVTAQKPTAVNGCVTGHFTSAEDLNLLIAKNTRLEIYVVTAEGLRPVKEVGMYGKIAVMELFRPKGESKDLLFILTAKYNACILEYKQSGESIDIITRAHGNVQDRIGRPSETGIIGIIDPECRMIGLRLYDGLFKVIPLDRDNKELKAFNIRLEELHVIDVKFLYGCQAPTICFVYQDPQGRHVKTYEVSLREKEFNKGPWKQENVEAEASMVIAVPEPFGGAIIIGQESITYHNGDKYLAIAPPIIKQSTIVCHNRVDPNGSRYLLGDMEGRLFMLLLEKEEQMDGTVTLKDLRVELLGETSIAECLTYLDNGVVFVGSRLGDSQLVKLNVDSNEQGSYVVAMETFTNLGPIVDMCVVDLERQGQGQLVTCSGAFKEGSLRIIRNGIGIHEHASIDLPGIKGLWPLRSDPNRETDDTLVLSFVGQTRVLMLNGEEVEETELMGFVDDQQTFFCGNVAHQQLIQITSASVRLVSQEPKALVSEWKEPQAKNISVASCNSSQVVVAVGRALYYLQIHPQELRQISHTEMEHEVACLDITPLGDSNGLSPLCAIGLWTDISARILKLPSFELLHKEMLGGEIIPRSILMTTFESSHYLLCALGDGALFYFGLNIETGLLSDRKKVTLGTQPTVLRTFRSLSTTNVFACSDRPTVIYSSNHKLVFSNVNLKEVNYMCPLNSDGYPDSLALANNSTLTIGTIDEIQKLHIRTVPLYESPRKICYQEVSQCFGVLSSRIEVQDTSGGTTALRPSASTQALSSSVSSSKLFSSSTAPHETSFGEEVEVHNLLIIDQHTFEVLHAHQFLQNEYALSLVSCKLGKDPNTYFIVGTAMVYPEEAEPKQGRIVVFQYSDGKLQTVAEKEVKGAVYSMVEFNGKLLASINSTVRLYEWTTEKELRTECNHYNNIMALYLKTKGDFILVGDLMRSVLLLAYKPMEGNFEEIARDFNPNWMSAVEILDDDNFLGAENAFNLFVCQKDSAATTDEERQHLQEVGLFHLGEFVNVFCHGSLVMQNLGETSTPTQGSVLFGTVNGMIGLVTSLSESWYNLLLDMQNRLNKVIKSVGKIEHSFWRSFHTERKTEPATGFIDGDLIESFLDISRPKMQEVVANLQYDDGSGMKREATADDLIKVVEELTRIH
T2 sequence (Q06187 whole entry): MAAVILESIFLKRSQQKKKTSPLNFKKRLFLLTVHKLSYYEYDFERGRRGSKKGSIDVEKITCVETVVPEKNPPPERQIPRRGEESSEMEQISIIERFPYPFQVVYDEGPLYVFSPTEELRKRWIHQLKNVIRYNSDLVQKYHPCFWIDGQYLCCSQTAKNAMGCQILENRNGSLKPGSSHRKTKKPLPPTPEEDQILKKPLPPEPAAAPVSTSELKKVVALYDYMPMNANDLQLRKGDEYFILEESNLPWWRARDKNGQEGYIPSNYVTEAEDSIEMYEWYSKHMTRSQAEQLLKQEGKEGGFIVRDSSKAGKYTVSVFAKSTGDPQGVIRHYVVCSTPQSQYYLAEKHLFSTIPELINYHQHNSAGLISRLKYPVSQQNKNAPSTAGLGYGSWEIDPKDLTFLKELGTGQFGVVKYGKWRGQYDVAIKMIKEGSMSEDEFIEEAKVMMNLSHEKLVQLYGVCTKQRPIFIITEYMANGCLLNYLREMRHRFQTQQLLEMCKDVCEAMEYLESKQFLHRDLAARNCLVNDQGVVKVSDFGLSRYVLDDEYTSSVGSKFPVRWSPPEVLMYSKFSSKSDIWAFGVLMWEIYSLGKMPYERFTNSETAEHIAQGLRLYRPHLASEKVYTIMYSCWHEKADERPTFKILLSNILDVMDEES

| SMILES | NanoBRET(%) (NanoLuc-CRBN fusion; drug concentration 1.00E-05 M) | NanoBRET(%) (NanoLuc-CRBN fusion; drug concentration 1.60E-08 M) | NanoBRET(%) (NanoLuc-CRBN fusion; drug concentration 2.00E-06 M) | NanoBRET(%) (NanoLuc-CRBN fusion; drug concentration 3.20E-09 M) | NanoBRET(%) (NanoLuc-CRBN fusion; drug concentration 4.00E-07 M) | NanoBRET(%) (NanoLuc-CRBN fusion; drug concentration 8.00E-08 M) | pIC50 (NanoLuc-CRBN fusion) | Cell viability, MOML-14 (MOLM-14 cells; drug concentration 1.00E-05 M) | Cell viability, MOML-14 (MOLM-14 cells; drug concentration 1.60E-08 M) | Cell viability, MOML-14 (MOLM-14 cells; drug concentration 2.00E-06 M) | Cell viability, MOML-14 (MOLM-14 cells; drug concentration 3.20E-09 M) | Cell viability, MOML-14 (MOLM-14 cells; drug concentration 4.00E-07 M) | Cell viability, MOML-14 (MOLM-14 cells; drug concentration 6.40E-10 M) | Cell viability, MOML-14 (MOLM-14 cells; drug concentration 8.00E-08 M) | Degradation at 200 nM (percentage of BTK degradation) (BTK [1]) [%] | also measured |
| --- | --- | --- | --- | --- | --- | --- | --- | --- | --- | --- | --- | --- | --- | --- | --- | --- |
| CCCNc1nc(Nc2ccc(C#N)cc2)ncc1C#CCCCNC(=O)[C@H](C)N(C)C(=O)/C=C/CN(C)CCCNC(=O)CCNc1cccc2c1C(=O)N(C1CCC(=O)NC1=O)C2=O (stereo partly shown) [IRC-FLT3] | 33.2279% and 26.4905% and 27.0048% | 92.7988% and 108.391% and 111.382% | 38.4699% and 38.0091% and 38.2395% | 129.579% and 139.696% and 92.9737% | 76.4349% and 76.1877% and 65.5306% | 100.627% and 103.984% and 84.3671% | 5.82 | – | – | – | – | – | – | – | – | – |
| CN(CCCCNC(=O)CNc1cccc2c1C(=O)N(C1CCC(=O)NC1=O)C2=O)C(C)(C)C=C(C#N)C(=O)N1CCC[C@@H](n2nc(-c3ccc(Oc4ccccc4)cc3)c3c(N)ncnc32)C1 (stereo partly shown) [RC-2] | – | – | – | – | – | – | – | 1.939 (2×) and 0.9797 and 1.263 and 1.918 | 109.825 and 84.2418 and 85.8907 and 118.518 and 93.8319 | 9.2521 and 10.1835 and 11.1012 and 14.0541 and 10.0041 | 91.1619 and 67.352 and 96.5641 and 78.9913 and 73.6029 | 67.2416 and 67.0208 and 59.4522 and 60.425 and 58.2103 | 98.0682 and 96.9022 and 102.332 and 130.626 and 104.719 | 92.8384 and 69.3183 and 103.532 and 88.8644 and 89.4508 | 49 | – |
| CN(CCOCCNC(=O)CNc1cccc2c1C(=O)N(C1CCC(=O)NC1=O)C2=O)C(C)(C)C=C(C#N)C(=O)N1CCC[C@@H](n2nc(-c3ccc(Oc4ccccc4)cc3)c3c(N)ncnc32)C1 (stereo partly shown) [RC-3] | – | – | – | – | – | – | – | 6.131 and 2.152 and 5.745 and 1.563 and 5.644 | 83.11 and 86.5611 and 70.0365 and 75.0101 and 88.6317 | 14.9208 and 11.551 and 11.6931 and 9.785 and 11.754 | 76.8575 and 93.7881 and 76.4921 and 85.0995 and 82.1762 | 53.106 and 44.4377 and 39.7686 and 41.149 and 48.4166 | 89.9919 and 78.9687 and 69.3463 and 82.7852 and 87.4746 | 71.5794 and 85.3634 and 65.8344 and 81.7296 and 79.4965 | 39 | – |
| CN(CCOCCOCCNC(=O)CNc1cccc2c1C(=O)N(C1CCC(=O)NC1=O)C2=O)C(C)(C)C=C(C#N)C(=O)N1CCC[C@@H](n2nc(-c3ccc(Oc4ccccc4)cc3)c3c(N)ncnc32)C1 (stereo partly shown) [RC-4] | – | – | – | – | – | – | – | 7.995 and 4.587 and 6.948 and 0.6662 and 4.873 | 106.917 and 98.9797 and 102.749 and 88.7772 and 88.111 | 23.0509 and 25.7918 and 22.8415 and 19.1107 and 18.6919 | 98.1803 and 95.5954 and 92.3367 and 95.7248 and 84.8751 | 68.7719 and 62.8902 and 62.3953 and 62.1669 and 56.6088 | 92.8506 and 90.1858 and 94.6399 and 97.7806 and 77.071 | 89.7861 and 80.8588 and 84.9703 and 89.1389 and 65.2315 | 43 | – |
| CN(CCOCCOCCOCCNC(=O)CNc1cccc2c1C(=O)N(C1CCC(=O)NC1=O)C2=O)C(C)(C)C=C(C#N)C(=O)N1CCCC(n2nc(-c3ccc(Oc4ccccc4)cc3)c3c(N)ncnc32)C1 (stereo not shown) [RC-5] | – | – | – | – | – | – | – | 1.391 and 1.373 and 1.5492 and 0.5927 and 1.848 | 74.2327 and 92.4124 and 92.4946 and 100.939 and 90.3468 | 10.6332 and 11.0087 and 14.6588 and 13.2797 and 19.9049 | 91.6026 and 96.0448 and 87.3775 and 99.3838 and 93.8853 | 64.738 and 68.3352 and 96.2033 and 70.0311 and 76.4802 | 101.496 and 98.8968 and 89.2553 and 98.5858 and 94.7773 | 91.7317 and 86.3095 and 87.3482 and 74.3794 and 93.7562 | 56 | – |
| CN(CCCCNc1cccc2c1C(=O)N(C1CCC(=O)NC1=O)C2=O)C(C)(C)C=C(C#N)C(=O)N1CCCC(n2nc(-c3ccc(Oc4ccccc4)cc3)c3c(N)ncnc32)C1 (stereo not shown) [RC-7] | – | – | – | – | – | – | – | 14.5806 and 18.8166 and 13.8981 and 12.7996 and 18.6335 | 91.6861 and 127.114 and 140.005 and 143.301 and 145.198 | 29.6105 and 35.3113 and 28.8948 and 32.5316 and 40.9787 | 108.289 and 119.541 and 122.853 and 118.675 and 131.225 | 92.6182 and 112.666 and 109.446 and 93.7916 and 129.078 | 104.877 and 113.673 and 115.995 and 128.978 and 91.4031 | 94.8735 and 136.951 and 131.242 and 108.447 and 144.149 | 6 | – |
| CN(CCCNc1cccc2c1C(=O)N(C1CCC(=O)NC1=O)C2=O)C(C)(C)C=C(C#N)C(=O)N1CCCC(n2nc(-c3ccc(Oc4ccccc4)cc3)c3c(N)ncnc32)C1 (stereo not shown) [RC-8] | – | – | – | – | – | – | – | 17.5563 and 16.7069 and 17.8914 and 20.4239 and 19.1771 | 123.954 and 125.216 and 128.45 and 118.008 and 115.826 | 51.2117 and 59.1288 and 59.5652 and 52.2481 and 61.4899 | 109.039 and 133.593 and 120.962 and 127.936 and 128.38 | 97.748 and 111.696 and 131.871 and 99.439 and 92.5349 | 132.113 and 115.156 and 99.1818 and 117.969 and 130.757 | 116.239 and 126.011 and 117.112 and 106.966 and 122.419 | 15 | – |
| CCCNc1nc(Nc2ccc(C#N)cc2)ncc1C#CCCCNC(=O)[C@H](C)N(C)C(=O)/C(C#N)=C/C(C)(C)N(C)CCCNC(=O)CCNc1cccc2c1C(=O)N(C1CCC(=O)NC1=O)C2=O (stereo partly shown) [RC-FLT3] | 35.9991% and 14.2807% and 25.1399% | 91.6727% and 89.8569% and 90.7648% | 22.2416% and 18.9083% and 40.0723% | 100.385% and 96.7751% and 101.754% | 38.0473% and 34.6413% and 45.5817% | 64.8551% and 66.5991% and 71.8605% | 6.52 | – | – | – | – | – | – | – | – | – |
| CCC(=O)N1CCCC(n2nc(-c3ccc(Oc4ccccc4)cc3)c3c(N)ncnc32)C1 (stereo not shown) [RNC-Ctrl] | – | – | – | – | – | – | – | 9.88 and 4.549 and 8.014 and 2.825 and 3.518 | 95.1882 and 83.3008 and 72.3018 and 73.7944 and 64.519 | 23.8281 and 18.1065 and 24.6633 and 17.9289 and 14.3751 | 99.7903 and 102.278 and 76.2998 and 63.1686 and 63.4529 | 54.0886 and 58.7263 and 56.6474 and 49.4687 and 44.0492 | 93.8377 and 115.463 and 71.822 and 77.5792 and 66.4558 | 94.9216 and 79.4804 and 66.9 and 56.8073 and 62.3334 | – | pIC50 (BTK [2]): 7.87; activity at 12.8 pM (BTK [2]; Supplementary Figure 5, drug concentration 12.8 pM, replicates, read-out: Inhibition(%)): 94.1%; activity at 64 pM (BTK [2]; Supplementary Figure 5, drug concentration 64 pM, replicates, read-out: Inhibition(%)): 94%; activity at 0.00032 µM (BTK [2]; Supplementary Figure 5, drug concentration 320 pM, replicates, read-out: Inhibition(%)): 92.7%; activity at 0.0016 µM (BTK [2]; Supplementary Figure 5, drug concentration 1600 pM, replicates, read-out: Inhibition(%)): 83.1%; activity at 0.008 µM (BTK [2]; Supplementary Figure 5, drug concentration 8000 pM, replicates, read-out: Inhibition(%)): 62.4%; activity at 0.04 µM (BTK [2]; Supplementary Figure 5, drug concentration 40000 pM, replicates, read-out: Inhibition(%)): 29.6%; activity at 0.2 µM (BTK [2]; Supplementary Figure 5, drug concentration 200000 pM, replicates, read-out: Inhibition(%)): 9.18%; activity at 1 µM (BTK [2]; Supplementary Figure 5, drug concentration 1000000 pM, replicates, read-out: Inhibition(%)): 3.99%; reduction of BTK inhibition activity compared with IRC-Ctrl (BTK [2]; ratio of IC50 values): 45 folds; activity at 2.56 pM (BTK [2]; read-out: Inhibition(%), Supplementary Figure 5, drug concentration 2.56 pM, replicates): 110%; pIC50 (MOLM-14 cells; Homo sapiens, MOLM-14, 72 h, read-out: Cell viability IC50): 6.38 |
| CCCNc1nc(Nc2ccc(C#N)cc2)ncc1C#CCCCNC(=O)[C@H](C)N(C)C(=O)CCCN(C)CCCNC(=O)CCNc1cccc2c1C(=O)N(C1CCC(=O)NC1=O)C2=O (stereo partly shown) [RNC-FLT3] | 48.4243% and 48.1518% and 48.288% | 120.01% and 113.24% and 126.78% | 97.5318% and 86.9073% and 76.2828% | 100.446% and 106.017% | 98.4352% and 83.544% and 119.955% | 117.071% and 115.752% and 114.432% | 5.00 | – | – | – | – | – | – | – | – | – |
